According to patent US6468971B1, “Maintaining kidney function during surgery or trauma” (Board of Supervisors of Louisiana State University and …, priority 1998, dated 2002):
“Also recorded” adds a separate entry of the source.

Key:
[1] = tested on: isoflurane-anesthetized rats under surgery; assay: Renal response to drug given after start of surgery and isoflurane anesthesia; type: in vivo, Sprague-Dawley rat
[2] = tested on: human patients during general anesthesia and surgery; details: administered 90 minutes before anesthesia; cited from earlier work
conscious rats [3] = assay: E-2078 effect on urine flow and sodium excretion in conscious rats (Salas et al.); type: in vivo, rat; details: 50 μg i.v., after 15-30 minutes
conscious rats [4] = details: 50 μg i.v., cited from earlier work
[5] = tested on: rats anesthetized with pentobarbital; details: 50 μg i.v.; cited from earlier work
[6] = tested on: rats during surgery under isoflurane anesthesia; parameters: species or system Sprague-Dawley rat; details: rat, in vivo
conscious humans = details: cited from earlier work
[7] = intravenous bolus injection during isoflurane anesthesia and surgery
[8] = conscious healthy humans (Rimoy 1991)

With `NS(=O)(=O)c1cc(C(=O)O)c(NCc2ccco2)cc1Cl` [furosemide] the “effect on urine flow rate” value ([1]; continuous intravenous infusion after start of surgery and isoflurane (U-50,488H 100 μg/kg/min)) was “returned to the impaired pre-drug levels”, the “urine flow rate, peak” value ([1]; continuous intravenous infusion after start of surgery and isoflurane (U-50,488H 100 μg/kg/min), saline infusion 55 μl/min) was “about 200 μl/min” and the “course of urine flow rate after the peak” value [1, 7] was “declined rapidly”. For the same molecule, the “urine flow rate, peak” value [1, 7] was “about 300 μl/min”.
For `Clc1cccc(Cl)c1N=C1NCCN1` [clonidine], the diuresis [2] is listed as “significant diuresis during surgery”, the “losses of sodium and potassium” value [2] is listed as “substantial losses of sodium and potassium” and the “mean arterial pressure and heart rate” value [2] is listed as “substantial decrease in mean arterial pressure and heart rate”.
In the case of “(N-methyl-Tyr^1,N-methyl-Arg^7-D-Leu^8)-dynorphin-A(1-8) ethylamide [E-2078]”, the “increase over the baseline flow rate” value (conscious rats [3]) is given as 78 µL/min, the urine flow rate (conscious rats [4]; after 15-30 minutes) is given as 118 ± 22 µL/min and the urinary sodium excretion (conscious rats [4]; at 30-45 min) is given as 1.4±0.4 μEq/min. The urinary sodium excretion [5] was 0.3±0.1 μEq/min and the urine flow rate [5] was 6.3 ± 1.0 µL/min.
For `OC[C@@H](O)[C@@H](O)[C@H](O)[C@H](O)CO` [mannitol], the “course of urine flow rate after the peak” value [1, 7] was “not maintained and declined to the impaired levels observed before drug administration”, the urinary potassium excretion [1, 7] was “increase in urinary sodium and potassium excretion” and the urinary sodium excretion [1, 7] was “increase in urinary sodium and potassium excretion”. The “urine flow rate, peak” value [1, 7] was “up to 135 μl/min”.
In the case of `C=C1CC2(CCC(N3CCCC3)C(N(C)C(=O)Cc3ccc(Cl)c(Cl)c3)C2)OC1=O` (stereo not shown) [U-62,066E, 3,4-dichloro-N-methyl-N-(3-methylene-2-oxo-8-(1-pyrrolidinyl)-1-oxaspiro(4,5)dec-7-yl)-benzeneacetamide], the urinary potassium excretion [6] is reported as “gradual increase; also recorded: significant and steady increase toward a new plateau level”, the urinary sodium excretion [6] is reported as “remained low throughout the duration of the experiment” and the urine flow rate [6] is reported as “remained elevated throughout the 6 hours of the study”. The “central nervous system effects” value (conscious humans; 3.2 μg/kg dose) was “sedation, significant dysphoria, and no significant euphoria”, the diuretic response (conscious humans; 5 μg/kg intramuscular) was “pronounced diuretic response” and the “sodium, potassium, or chloride excretion” value (conscious humans; 2 to 6 μg/kg intramuscular) was “without increases in sodium, potassium, or chloride excretion”. For the same molecule, the water diuresis (conscious humans; 2 to 6 μg/kg intramuscular) was “induced water diuresis”, the urine osmolality (conscious humans; [8]) was “decreased urine osmolality” and the urine output (conscious humans; [8]) was “significantly increased urine output”. For the same molecule, the “diuretic potency relative to U-50,488H” value (conscious humans; in vivo) was “about twice as potent a diuretic as U-50,488H”.
For `CN1c2ccccc2C(c2ccccc2F)=NCC1CNC(=O)c1ccsc1` (single isomer, unassigned; (+)) [tifluadom, (+)-(1-methyl-2,3-thienyl-carboxyl)-aminomethyl-5-(2-fluorophenyl)H-2,3-dihydro-1,4-benzodiazepine], the “effect on urine flow rate during surgery and isoflurane anesthesia” value [6] was “remained steady (time 10) and consistently increased over time (time 20-90) until a plateau was reached (time 100-120)”, the urinary potassium excretion [6] was “remained low” and the urinary sodium excretion [6] was “remained low”. The urine flow rate [6] was 20 µL/min and the urine osmolality [6] was “remained low”.
